# Assay results from PubChem BioAssay (NCI).
#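 Five compound concentrations were applied to cells in 96-well plates for 48 hours; endpoints were derived by simple linear interpolation of the resulting dose-response curve. GI50 marks 50% less growth. TGI: total growth inhibition.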
# Assays:
# Assay in all cases: inhibition of tumour cell growth, NCI panel, 48 h
# RXF 393 renal = tested on: RXF 393 renal
# HOP-62 NSCLC = tested on: HOP-62 NSCLC
# IGROV1 ovarian = tested on: IGROV1 ovarian
# DU-145 prostate = tested on: DU-145 prostate
# MCF7 breast = tested on: MCF7 breast
# KM12 colon = tested on: KM12 colon
# UACC-62 melanoma = tested on: UACC-62 melanoma
# BT-549 breast = tested on: BT-549 breast
# UO-31 renal = tested on: UO-31 renal
# A549 NSCLC = tested on: A549 NSCLC
# SF-268 CNS = tested on: SF-268 CNS
# NCI-H522 lung = tested on: NCI-H522 lung
# 786-0 renal = tested on: 786-0 renal
# SF-539 CNS = tested on: SF-539 CNS
# EKVX NSCLC = tested on: EKVX NSCLC
# OVCAR-8 ovarian = tested on: OVCAR-8 ovarian
# SNB-75 CNS = tested on: SNB-75 CNS
# SF-295 CNS = tested on: SF-295 CNS
# OVCAR-3 ovarian = tested on: OVCAR-3 ovarian
# ACHN renal = tested on: ACHN renal
# CCRF-CEM leukemia = tested on: CCRF-CEM leukemia
# SK-MEL-2 melanoma = tested on: SK-MEL-2 melanoma
# RPMI-8226 leukemia = tested on: RPMI-8226 leukemia
# SN12C renal = tested on: SN12C renal
# HCT-15 colon = tested on: HCT-15 colon
# SK-MEL-5 melanoma = tested on: SK-MEL-5 melanoma
# K-562 leukemia = tested on: K-562 leukemia
# U251 CNS = tested on: U251 CNS
# MALME-3M melanoma = tested on: MALME-3M melanoma
# M14 melanoma = tested on: M14 melanoma
# TK-10 renal = tested on: TK-10 renal
# NCI-H23 lung = tested on: NCI-H23 lung
# SK-OV-3 ovarian = tested on: SK-OV-3 ovarian
# SK-MEL-28 melanoma = tested on: SK-MEL-28 melanoma
# HOP-92 NSCLC = tested on: HOP-92 NSCLC
# NCI-H226 lung = tested on: NCI-H226 lung
# HL-60(TB) leukemia = tested on: HL-60(TB) leukemia
# NCI-H460 lung = tested on: NCI-H460 lung
# MDA-MB-468 breast = tested on: MDA-MB-468 breast
# A498 renal = tested on: A498 renal
# HCC-2998 colon = tested on: HCC-2998 colon
# NCI/ADR-RES ovarian = tested on: NCI/ADR-RES ovarian
# MDA-MB-231 breast = tested on: MDA-MB-231 breast
# CAKI-1 renal = tested on: CAKI-1 renal
# LOX IMVI melanoma = tested on: LOX IMVI melanoma
# T-47D breast = tested on: T-47D breast
# OVCAR-5 ovarian = tested on: OVCAR-5 ovarian
# UACC-257 melanoma = tested on: UACC-257 melanoma
# HT29 colon = tested on: HT29 colon
# OVCAR-4 ovarian = tested on: OVCAR-4 ovarian
# SNB-19 CNS = tested on: SNB-19 CNS
# COLO 205 colon = tested on: COLO 205 colon
# HS 578T breast = tested on: HS 578T breast
# MOLT-4 leukemia = tested on: MOLT-4 leukemia
# HCT-116 colon = tested on: HCT-116 colon
# PC-3 prostate = tested on: PC-3 prostate
# SW-620 colon = tested on: SW-620 colon
# MDA-MB-435 = tested on: MDA-MB-435
compound,measurement,setting,value
C=C1CCC2C3(C)COC(c4ccco4)OC3CCC2(C)C1CC(Sc1ccccc1)C1=CCOC1=O (stereo unspecified),GI50,RXF 393 renal,8.05 µM
same,TGI,RXF 393 renal,49.1 µM
same,GI50,HOP-62 NSCLC,23.5 µM
same,TGI,HOP-62 NSCLC,> 100 µM
same,GI50,IGROV1 ovarian,17.8 µM
same,TGI,IGROV1 ovarian,> 100 µM
same,GI50,DU-145 prostate,9.01 µM
same,TGI,DU-145 prostate,73.6 µM
same,GI50,MCF7 breast,3.75 µM
same,TGI,MCF7 breast,41 µM
same,GI50,KM12 colon,12.1 µM
same,TGI,KM12 colon,> 100 µM
same,GI50,UACC-62 melanoma,12.4 µM
same,TGI,UACC-62 melanoma,31.8 µM
same,GI50,BT-549 breast,3.97 µM
same,TGI,BT-549 breast,16.9 µM
same,GI50,UO-31 renal,13.4 µM
same,TGI,UO-31 renal,> 100 µM
same,GI50,A549 NSCLC,18.7 µM
same,TGI,A549 NSCLC,> 100 µM
same,GI50,SF-268 CNS,59.5 µM
same,TGI,SF-268 CNS,> 100 µM
same,GI50,NCI-H522 lung,7.51 µM
same,TGI,NCI-H522 lung,20.4 µM
same,GI50,786-0 renal,14.3 µM
same,TGI,786-0 renal,34.1 µM
same,GI50,SF-539 CNS,4.12 µM
same,TGI,SF-539 CNS,15.6 µM
same,GI50,EKVX NSCLC,11 µM
same,TGI,EKVX NSCLC,> 100 µM
same,GI50,OVCAR-8 ovarian,3.05 µM
same,TGI,OVCAR-8 ovarian,14.3 µM
same,GI50,SNB-75 CNS,8.98 µM
same,TGI,SNB-75 CNS,> 100 µM
same,GI50,SF-295 CNS,25.7 µM
same,TGI,SF-295 CNS,> 100 µM
same,GI50,OVCAR-3 ovarian,3.78 µM
same,TGI,OVCAR-3 ovarian,12.5 µM
same,GI50,ACHN renal,14.1 µM
same,TGI,ACHN renal,> 100 µM
same,GI50,CCRF-CEM leukemia,2.12 µM
same,TGI,CCRF-CEM leukemia,> 100 µM
same,GI50,SK-MEL-2 melanoma,7.3 µM
same,TGI,SK-MEL-2 melanoma,22 µM
same,GI50,RPMI-8226 leukemia,2.36 µM
same,TGI,RPMI-8226 leukemia,8.23 µM
same,GI50,SN12C renal,9.46 µM
same,TGI,SN12C renal,> 100 µM
same,GI50,HCT-15 colon,6.66 µM
same,TGI,HCT-15 colon,52.9 µM
same,GI50,SK-MEL-5 melanoma,10.8 µM
same,TGI,SK-MEL-5 melanoma,22.9 µM
same,GI50,K-562 leukemia,3.62 µM
same,TGI,K-562 leukemia,> 100 µM
same,GI50,U251 CNS,5.88 µM
same,TGI,U251 CNS,20.3 µM
same,GI50,MALME-3M melanoma,35.6 µM
same,TGI,MALME-3M melanoma,> 100 µM
same,GI50,M14 melanoma,15.7 µM
same,TGI,M14 melanoma,69.2 µM
same,GI50,TK-10 renal,97.7 µM
same,TGI,TK-10 renal,> 100 µM
same,GI50,NCI-H23 lung,21.5 µM
same,TGI,NCI-H23 lung,88.9 µM
same,GI50,SK-OV-3 ovarian,80.1 µM
same,TGI,SK-OV-3 ovarian,> 100 µM
same,GI50,SK-MEL-28 melanoma,28.5 µM
same,TGI,SK-MEL-28 melanoma,> 100 µM
same,GI50,HOP-92 NSCLC,16.5 µM
same,TGI,HOP-92 NSCLC,> 100 µM
same,GI50,NCI-H226 lung,6.22 µM
same,TGI,NCI-H226 lung,62.6 µM
same,GI50,HL-60(TB) leukemia,2.82 µM
same,TGI,HL-60(TB) leukemia,36.4 µM
same,GI50,NCI-H460 lung,21.7 µM
same,TGI,NCI-H460 lung,> 100 µM
same,GI50,MDA-MB-468 breast,3.8 µM
same,TGI,MDA-MB-468 breast,16.7 µM
same,GI50,A498 renal,> 100 µM
same,TGI,A498 renal,> 100 µM
same,GI50,HCC-2998 colon,21.1 µM
same,TGI,HCC-2998 colon,> 100 µM
same,GI50,NCI/ADR-RES ovarian,2.6 µM
same,TGI,NCI/ADR-RES ovarian,6.95 µM
same,GI50,MDA-MB-231 breast,14.3 µM
same,TGI,MDA-MB-231 breast,53.2 µM
same,GI50,CAKI-1 renal,18.4 µM
same,TGI,CAKI-1 renal,> 100 µM
same,GI50,LOX IMVI melanoma,1.81 µM
same,TGI,LOX IMVI melanoma,4 µM
same,GI50,T-47D breast,14.4 µM
same,TGI,T-47D breast,> 100 µM
same,GI50,OVCAR-5 ovarian,21.7 µM
same,TGI,OVCAR-5 ovarian,91 µM
same,GI50,UACC-257 melanoma,21.9 µM
same,TGI,UACC-257 melanoma,> 100 µM
same,GI50,HT29 colon,4.26 µM
same,TGI,HT29 colon,26.1 µM
same,GI50,OVCAR-4 ovarian,14.7 µM
same,TGI,OVCAR-4 ovarian,> 100 µM
same,GI50,SNB-19 CNS,42.3 µM
same,TGI,SNB-19 CNS,> 100 µM
same,GI50,COLO 205 colon,24.4 µM
same,TGI,COLO 205 colon,> 100 µM
same,GI50,HS 578T breast,35.7 µM
same,TGI,HS 578T breast,> 100 µM
same,GI50,MOLT-4 leukemia,4.41 µM
same,TGI,MOLT-4 leukemia,> 100 µM
same,GI50,HCT-116 colon,4.39 µM
same,TGI,HCT-116 colon,17.9 µM
same,GI50,PC-3 prostate,6.71 µM
same,TGI,PC-3 prostate,> 100 µM
same,GI50,SW-620 colon,3.43 µM
same,TGI,SW-620 colon,15 µM
same,GI50,MDA-MB-435,8.94 µM
same,TGI,MDA-MB-435,> 100 µM
